Reference: US20230190781A1, “ADEMETIONINE AND CANNABIDIOL BASED SOLID PHARMACEUTICAL COMPOSITION AND METHOD FOR PREPARING IT” (priority 2020, published 2023)

How the values were obtained:
[1] = Residual humidity according to Karl-Fisher during processing under vacuum; format: physicochemical; settings: Phase: dosage
Method: It was operated as described in Example 3, but the step of mixing the active substances was carried out under vacuum, as described in Example 11.

[2] = Stability of ademetionine in the compositions; format: physicochemical; settings: +40° C. and 75% RH
Method: The compositions prepared according to the previous examples were placed in dark glass jars in cabinets with temperature and relative humidity control (+40° C. and 75% RH), periodically checking the content of active substances. The stability of the raw material is used as a reference.

## C[S+](CC[C@H](N)C(=O)[O-])C[C@H]1O[C@@H](n2cnc3c(N)ncnc32)[C@H](O)[C@@H]1O (stereo partly drawn) [Ademetionine, S,S-adenosyl-L-methionine]
[1]
  KF: residual humidity: 2.7% w/w
[2]; dark glass jars, 0 months
  ademetionine content, Time (months) 0: 51.5
[2]; dark glass jars, 1 month
  ademetionine content, Time (months) 1: 51.0
[2]; dark glass jars, 2 months
  ademetionine content, Time (months) 2: 49.6
[2]; dark glass jars, 3 months
  ademetionine content, Time (months) 3: 48.8
[2]; active substance content after three months as a percentage with respect to time zero
  % residual ion: 94.8%
